# Data: PubChem BioAssay AID264 (DTP/NCI, 2004)
# Where “and” joins values, the source holds several entries; their conditions need not be identical. Equal entries are not always repeated. Records with an inconclusive call do not appear.
# System: nude mice, LX-1 lung xenograft intrarenal, tumor weight T/C
# Test: NCI In Vivo Anticancer Drug Screen. Data for tumor model Human Lung LX-1 Xenograft (intrarenal inoculation) in NU/NU Swiss (nude) mice
# Conditions: endpoint: mean tumor weight change, higher = larger tumour
# Method in brief: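 Antitumor effect is expressed as a ratio: the mean tumor measurement of the drug-treated group relative to that of the vehicle-dosed control group.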
# [1] = dose: 100.0 mg/kg/injection, schedule: Q04DX003 (sc), vehicle: saline with Tween-80
# [2] = dose: 75.0 mg/kg/injection, schedule: Q04DX003 (sc), vehicle: saline
# [3] = dose: 150.0 mg/kg/injection, schedule: Q04DX003 (sc), vehicle: saline
# [4] = dose: 300.0 mg/kg/injection, schedule: Q04DX003 (sc), vehicle: saline
# [5] = dose: 600.0 mg/kg/injection, schedule: Q04DX003 (sc), vehicle: saline
# [6] = dose: 300.0 mg/kg/injection, schedule: Q04DX003 (sc), vehicle: saline with Tween-80
# [7] = dose: 600.0 mg/kg/injection, schedule: Q04DX003 (sc), vehicle: saline with Tween-80
# [8] = dose: 1200.0 mg/kg/injection, schedule: Q04DX003 (sc), vehicle: saline with Tween-80
# [9] = dose: 2400.0 mg/kg/injection, schedule: Q04DX003 (sc), vehicle: saline with Tween-80
# [10] = dose: 100.0 mg/kg/injection, schedule: Q01DX010 (sc), vehicle: saline with Tween-80
# [11] = dose: 200.0 mg/kg/injection, schedule: Q01DX010 (sc), vehicle: saline with Tween-80
# [12] = dose: 300.0 mg/kg/injection, schedule: Q04DX003 (sc), vehicle: Klucel (hydroxypropylcellulose) (HPC)
# [13] = dose: 600.0 mg/kg/injection, schedule: Q04DX003 (sc), vehicle: Klucel (hydroxypropylcellulose) (HPC)
# [14] = dose: 1200.0 mg/kg/injection, schedule: Q04DX003 (sc), vehicle: Klucel (hydroxypropylcellulose) (HPC)
# [15] = dose: 50.0 mg/kg/injection, schedule: Q01DX010 (sc), vehicle: saline with Tween-80
compound,measurement,setting,value
CCN(CC)CCOC(=O)Cc1cccc2c(=O)cc(-c3ccccc3)oc12,T/C,[1],112 % of control
same,T/C,"dose: 200.0 mg/kg/injection, schedule: Q04DX003 (sc), vehicle: saline with Tween-80",44 % of control
C/C=C/C=C/c1cc2cc3c(c(O)c2c(=O)[nH]1)C1(CC3)C(O)=c2c(=O)c3c(=O)cc(OC)c(=O)c=3c(=O)c2=C1O (configuration not stated),T/C,"dose: 0.5 mg/kg/injection, schedule: Q01DX010 (sc), vehicle: DMSO",221 % of control
same,T/C,"dose: 1.0 mg/kg/injection, schedule: Q01DX010 (sc), vehicle: DMSO",162 % of control
same,T/C,"dose: 2.0 mg/kg/injection, schedule: Q01DX010 (sc), vehicle: DMSO",92 % of control and 104 % of control
same,T/C,"dose: 4.0 mg/kg/injection, schedule: Q01DX010 (sc), vehicle: DMSO",103 % of control and 111 % of control
same,T/C,"dose: 8.0 mg/kg/injection, schedule: Q01DX010 (sc), vehicle: DMSO",106 % of control
same,T/C,"dose: 16.0 mg/kg/injection, schedule: Q01DX010 (sc), vehicle: DMSO",86 % of control
COC1C(OC(=O)/C=C/C=C/C=C/C=C/C(=O)O)CCC2(CO2)C1C1(C)OC1CC=C(C)C (configuration not stated),T/C,[2],76 % of control
same,T/C,[3],81 % of control
same,T/C,[4],75 % of control
same,T/C,[5],66 % of control
Nc1nc(N)c2c(ccc3c2ccn3Cc2cccc([N+](=O)[O-])c2)n1,T/C,"dose: 37.5 mg/kg/injection, schedule: Q04DX003 (sc), vehicle: saline with Tween-80",100 % of control
same,T/C,"dose: 75.0 mg/kg/injection, schedule: Q04DX003 (sc), vehicle: saline with Tween-80",69 % of control
same,T/C,"dose: 150.0 mg/kg/injection, schedule: Q04DX003 (sc), vehicle: saline with Tween-80",50 % of control
C=C1C(=O)OC2CC(C)C3C4OC4C(O)C3(C)C(O)C12 (configuration not stated),T/C,[1],97 % of control
same,T/C,"dose: 800.0 mg/kg/injection, schedule: Q04DX003 (sc), vehicle: saline with Tween-80",75 % of control
CNc1cccnc1/C=N/NC(N)=S,T/C,[6],94 % of control
same,T/C,[7],57 % of control
same,T/C,[8],67 % of control
same,T/C,[9],75 % of control
CCO/C=C1\SC(=S)N(c2ccccc2C)C1=O,T/C,[10],26 % of control
same,T/C,[11],64 % of control
same,T/C,"dose: 400.0 mg/kg/injection, schedule: Q01DX010 (sc), vehicle: saline with Tween-80",76 % of control
same,T/C,"dose: 800.0 mg/kg/injection, schedule: Q01DX010 (sc), vehicle: saline with Tween-80",89 % of control
CN(C)N=Nc1cccc(C(N)=O)c1,T/C,"dose: 25.0 mg/kg/injection, schedule: Q04DX003 (sc), vehicle: Klucel (hydroxypropylcellulose) (HPC)",72 % of control
same,T/C,"dose: 50.0 mg/kg/injection, schedule: Q04DX003 (sc), vehicle: Klucel (hydroxypropylcellulose) (HPC)",47 % of control
same,T/C,"dose: 100.0 mg/kg/injection, schedule: Q04DX003 (sc), vehicle: Klucel (hydroxypropylcellulose) (HPC)",7 % of control and 15 % of control
same,T/C,"dose: 200.0 mg/kg/injection, schedule: Q04DX003 (sc), vehicle: Klucel (hydroxypropylcellulose) (HPC)",4 % of control and 29 % of control
same,T/C,"dose: 400.0 mg/kg/injection, schedule: Q04DX003 (sc), vehicle: Klucel (hydroxypropylcellulose) (HPC)",-61 % of control
CNC(=O)c1cccc2c(Nc3ccc(NS(C)(=O)=O)cc3OC)c3cccc(C)c3nc12,T/C,"dose: 50.0 mg/kg/injection, schedule: Q04DX003 (sc), vehicle: water",69 % of control
CCC1=C[C@H]2CN(CCc3c([nH]c4ccccc34)[C@@](C(=O)OC)(c3cc4c(cc3OC)N(C)[C@H]3[C@@](O)(C(=O)NC)[C@H](OC(C)=O)[C@]5(CC)C=CCN6CC[C@]43[C@@H]65)C2)C1,T/C,"dose: 0.5 mg/kg/injection, schedule: Q04DX003 (sc), vehicle: water",63 % of control
same,T/C,"dose: 1.0 mg/kg/injection, schedule: Q04DX003 (sc), vehicle: water",67 % of control
same,T/C,"dose: 4.0 mg/kg/injection, schedule: Q04DX003 (sc), vehicle: water",10 % of control
COCCCNC1=C(C#N)C(=O)NC(c2cccc([N+](=O)[O-])c2)S1 (configuration not stated),T/C,[6],109 % of control
same,T/C,[7],78 % of control
same,T/C,[8],124 % of control
same,T/C,[9],68 % of control
CCOC(=O)c1[nH]c2cccc3c2c1CC(Br)C3=O (configuration not stated),T/C,[6],87 % of control
same,T/C,[7],88 % of control
same,T/C,[8],84 % of control
same,T/C,[9],67 % of control
NC(C/[N+]([O-])=N/O)C(=O)O (configuration not stated),T/C,"dose: 50.0 mg/kg/injection, schedule: Q01DX010 (sc), vehicle: saline",47 % of control
CN=C(NC#N)NCCSCc1nc[nH]c1C,T/C,[12],81 % of control
same,T/C,[13],66 % of control
same,T/C,[14],73 % of control
COc1cc2c(c(OC)c1OC)-c1ccc(OC)c(=O)cc1[C@@H](NC(C)=O)CC2,T/C,"dose: 0.25 mg/kg/injection, schedule: Q01DX010 (sc), vehicle: saline",87 % of control
same,T/C,"dose: 0.5 mg/kg/injection, schedule: Q01DX010 (sc), vehicle: saline",50 % of control
O=C1C2CC=CCC2C(=O)N1SC(Cl)(Cl)Cl (configuration not stated),T/C,"dose: 6.25 mg/kg/injection, schedule: Q01DX010 (sc), vehicle: saline with Tween-80",102 % of control
same,T/C,"dose: 12.5 mg/kg/injection, schedule: Q01DX010 (sc), vehicle: saline with Tween-80",56 % of control
same,T/C,[15],64 % of control and 86 % of control
same,T/C,[10],76 % of control
same,T/C,[11],97 % of control
CCOC(=O)C(C)(C)Oc1ccc(Cl)cc1,T/C,[6],73 % of control
same,T/C,[7],97 % of control
same,T/C,[8],81 % of control
CC(=O)Nc1ccc(C(=O)C=O)cc1,T/C,"dose: 25.0 mg/kg/injection, schedule: Q01DX010 (sc), vehicle: saline with Tween-80",69 % of control
same,T/C,[15],103 % of control
same,T/C,[10],35 % of control
same,T/C,[11],45 % of control
C1CNCOC1,T/C,[4],90 % of control
CC12CC(C(=O)O)C3(O)CC(C)(C1)CC(C)(C2)C3 (configuration not stated) (tested in a mixture with another compound),T/C,[12],86 % of control
same,T/C,[13],57 % of control
same,T/C,[14],105 % of control
same,T/C,"dose: 2400.0 mg/kg/injection, schedule: Q04DX003 (sc), vehicle: Klucel (hydroxypropylcellulose) (HPC)",105 % of control
N=C(N)CCCCCCCCC(=N)N,T/C,"dose: 4.69 mg/kg/injection, schedule: Q04DX003 (sc), vehicle: saline",91 % of control
same,T/C,"dose: 9.38 mg/kg/injection, schedule: Q04DX003 (sc), vehicle: saline",92 % of control
same,T/C,"dose: 18.75 mg/kg/injection, schedule: Q04DX003 (sc), vehicle: saline",94 % of control
C[PH+](C)C.C[PH+](C)C.[Au],T/C,"dose: 5.0 mg/kg/injection, schedule: Q04DX003 (sc), vehicle: suspension in saline",111 % of control
same,T/C,"dose: 10.0 mg/kg/injection, schedule: Q04DX003 (sc), vehicle: suspension in saline",118 % of control
same,T/C,"dose: 20.0 mg/kg/injection, schedule: Q04DX003 (sc), vehicle: suspension in saline",76 % of control
CC1CC(C)CC(C)C(O)/C(C#N)=C/C=C/CC(C2CCCC2C(=O)O)OC(=O)CC(O)C(C)C1 (configuration not stated),T/C,"dose: 6.0 mg/kg/injection, schedule: Q04DX003 (sc), vehicle: Klucel (hydroxypropylcellulose) (HPC)",117 % of control
same,T/C,"dose: 12.0 mg/kg/injection, schedule: Q04DX003 (sc), vehicle: Klucel (hydroxypropylcellulose) (HPC)",58 % of control
same,T/C,"dose: 24.0 mg/kg/injection, schedule: Q04DX003 (sc), vehicle: Klucel (hydroxypropylcellulose) (HPC)",48 % of control
Cc1cn(C2CC3[O][Sn]([c]4ccccc4)([c]4ccccc4)[O]CC3O2)c(=O)[nH]c1=O (configuration not stated),T/C,[5],107 % of control
same,T/C,"dose: 2400.0 mg/kg/injection, schedule: Q04DX003 (sc), vehicle: saline",47 % of control
[Cl][Sn]([c]1ccccc1)[c]1ccccc1,T/C,[3],92 % of control
same,T/C,[5],84 % of control
OCC12COCN1COC2,T/C,[2],102 % of control
same,T/C,[3],115 % of control
CC(C)[C@](O)(C(=O)OCC1=CC[N+]2([O-])CC[C@@H](O)[C@@H]12)[C@H](C)O (some centres not stated),T/C,"dose: 50.0 mg/kg/injection, schedule: Q01DX010 (sc), vehicle: water",59 % of control
same,T/C,"dose: 100.0 mg/kg/injection, schedule: Q01DX010 (sc), vehicle: water",44 % of control
same,T/C,"dose: 200.0 mg/kg/injection, schedule: Q01DX010 (sc), vehicle: water",58 % of control
same,T/C,"dose: 400.0 mg/kg/injection, schedule: Q01DX010 (sc), vehicle: water",36 % of control
OCCOCCN1CCN(CCCN2c3ccccc3Sc3ccc(C(F)(F)F)cc32)CC1,T/C,"dose: 3.0 mg/kg/injection, schedule: Q01DX010 (sc), vehicle: saline",81 % of control
same,T/C,"dose: 12.0 mg/kg/injection, schedule: Q01DX010 (sc), vehicle: saline",92 % of control and 111 % of control
same,T/C,"dose: 24.0 mg/kg/injection, schedule: Q01DX010 (sc), vehicle: saline",52 % of control
